Measurements published in patent US6358885B1, “Substituted phenylheterocyclic herbicides” (Mississippi State University, priority 1992, dated 2002).

Assays:
Assay in all cases: Test B preemergence/postemergence greenhouse plant response rating 0 to 10
chickweed = type: in vivo, Stellaria media; conditions: Rate 200 g/ha, 0 to 10 scale
In short: (§1)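 Test chemicals were sprayed onto freshly planted seed and, concurrently, onto young plants between the one and four leaf stage. After a twelve- to sixteen-day greenhouse period, each species was visually compared with untreated controls.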

cocklebur = type: in vivo, Xanthium pensylvanicum; conditions: 0 to 10 scale
In short: as §1

morningglory = type: in vivo, Ipomoea hederacea; conditions: 0 to 10 scale
In short: as §1

sorghum = type: in vivo, Sorghum bicolor; conditions: 0 to 10 scale
In short: as §1

sugar beet = type: in vivo, Beta vulgaris; conditions: 0 to 10 scale
In short: as §1

giant foxtail = type: in vivo, Setaria faberii; conditions: 0 to 10 scale
In short: as §1

cheatgrass = type: in vivo, Bromus secalinus; conditions: 0 to 10 scale
In short: as §1

wild oat = type: in vivo, Avena fatua; conditions: 0 to 10 scale
In short: as §1

velvetleaf = type: in vivo, Abutilon theophrasti; conditions: 0 to 10 scale
In short: as §1

wheat = type: in vivo, Triticum aestivum; conditions: 0 to 10 scale
In short: as §1

wild buckwheat = type: in vivo, Polygonum convolvulus; conditions: 0 to 10 scale
In short: as §1

purple nutsedge = type: in vivo, Cyperus rotundus; conditions: 0 to 10 scale
In short: as §1

bedstraw = type: in vivo, Galium aparine; conditions: 0 to 10 scale
In short: as §1

lambsquarters = type: in vivo, Chenopodium album; conditions: 0 to 10 scale
In short: as §1

barnyardgrass = type: in vivo, Echinochloa crus-galli; conditions: 0 to 10 scale
In short: as §1

rice = type: in vivo, Oryza sativa; conditions: 0 to 10 scale
In short: as §1

cotton = type: in vivo, Gossypium hirsutum; conditions: 0 to 10 scale
In short: as §1

barley = type: in vivo, Hordeum vulgare; conditions: 0 to 10 scale
In short: as §1

blackgrass = type: in vivo, Alopecurus myosuroides; conditions: 0 to 10 scale
In short: as §1

soybean = type: in vivo, Glycine max; conditions: 0 to 10 scale
In short: as §1

rape = type: in vivo, Brassica napus; conditions: 0 to 10 scale
In short: as §1

crabgrass = type: in vivo, Digitaria spp.; conditions: 0 to 10 scale
In short: as §1

corn = type: in vivo, Zea mays; conditions: 0 to 10 scale
In short: as §1

For `Clc1ccc(-c2nn3c(c2Cl)CCCC3)c(Cl)c1` [Compound 35], the “Plant response rating, Chickweed” value (chickweed; POSTEMERGENCE) was 3, the “Plant response rating, Chickweed” value (chickweed; PREEMERGENCE) was 9 and the “Plant response rating, Cocklebur” value (cocklebur; POSTEMERGENCE, Rate 50 g/ha) was 5. For the same compound, the “Plant response rating, Cocklebur” value (cocklebur; POSTEMERGENCE, Rate 200 g/ha) was 7, the “Plant response rating, Cocklebur” value (cocklebur; PREEMERGENCE, Rate 50 g/ha) was 0 and the “Plant response rating, Cocklebur” value (cocklebur; Rate 200 g/ha, PREEMERGENCE) was 2. The “Plant response rating, Morningglory” value (morningglory; POSTEMERGENCE, Rate 50 g/ha) was 5, the “Plant response rating, Morningglory” value (morningglory; PREEMERGENCE, Rate 50 g/ha) was 0 and the “Plant response rating, Morningglory” value (morningglory; Rate 200 g/ha, POSTEMERGENCE) was 7. The “Plant response rating, Morningglory” value (morningglory; Rate 200 g/ha, PREEMERGENCE) was 2, the “Plant response rating, Sorghum” value (sorghum; POSTEMERGENCE, Rate 50 g/ha) was 5 and the “Plant response rating, Sorghum” value (sorghum; PREEMERGENCE, Rate 50 g/ha) was 0. For the same compound, the “Plant response rating, Sorghum” value (sorghum; Rate 200 g/ha, POSTEMERGENCE) was 6, the “Plant response rating, Sorghum” value (sorghum; Rate 200 g/ha, PREEMERGENCE) was 3 and the “Plant response rating, Sugar beet” value (sugar beet; POSTEMERGENCE, Rate 50 g/ha) was 9. The “Plant response rating, Sugar beet” value (sugar beet; PREEMERGENCE, Rate 50 g/ha) was 0, the “Plant response rating, Sugar beet” value (sugar beet; Rate 200 g/ha, POSTEMERGENCE) was 10 and the “Plant response rating, Sugar beet” value (sugar beet; Rate 200 g/ha, PREEMERGENCE) was 4. The “Plant response rating, Giant foxtail” value (giant foxtail; POSTEMERGENCE, Rate 50 g/ha) was 4, the “Plant response rating, Giant foxtail” value (giant foxtail; PREEMERGENCE, Rate 50 g/ha) was 2 and the “Plant response rating, Giant foxtail” value (giant foxtail; Rate 200 g/ha, POSTEMERGENCE) was 7. The “Plant response rating, Giant foxtail” value (giant foxtail; Rate 200 g/ha, PREEMERGENCE) was 9, the “Plant response rating, Cheatgrass” value (cheatgrass; POSTEMERGENCE, Rate 50 g/ha) was 3 and the “Plant response rating, Cheatgrass” value (cheatgrass; POSTEMERGENCE, Rate 200 g/ha) was 5. For the same compound, the “Plant response rating, Cheatgrass” value (cheatgrass; PREEMERGENCE, Rate 50 g/ha) was 1, the “Plant response rating, Cheatgrass” value (cheatgrass; Rate 200 g/ha, PREEMERGENCE) was 5 and the “Plant response rating, Wild oat” value (wild oat; POSTEMERGENCE, Rate 50 g/ha) was 3. For the same compound, the “Plant response rating, Wild oat” value (wild oat; PREEMERGENCE, Rate 50 g/ha) was 0, the “Plant response rating, Wild oat” value (wild oat; Rate 200 g/ha, POSTEMERGENCE) was 4 and the “Plant response rating, Velvetleaf” value (velvetleaf; POSTEMERGENCE, Rate 50 g/ha) was 8. For the same compound, the “Plant response rating, Velvetleaf” value (velvetleaf; PREEMERGENCE, Rate 50 g/ha) was 2, the “Plant response rating, Velvetleaf” value (velvetleaf; Rate 200 g/ha, POSTEMERGENCE) was 10 and the “Plant response rating, Velvetleaf” value (velvetleaf; Rate 200 g/ha, PREEMERGENCE) was 10. The “Plant response rating, Wheat” value (wheat; POSTEMERGENCE, Rate 50 g/ha) was 2, the “Plant response rating, Wheat” value (wheat; PREEMERGENCE, Rate 50 g/ha) was 0 and the “Plant response rating, Wheat” value (wheat; Rate 200 g/ha, POSTEMERGENCE) was 5. The “Plant response rating, Wheat” value (wheat; Rate 200 g/ha, PREEMERGENCE) was 7, the “Plant response rating, Wild buckwheat” value (wild buckwheat; POSTEMERGENCE, Rate 50 g/ha) was 6 and the “Plant response rating, Wild buckwheat” value (wild buckwheat; PREEMERGENCE, Rate 50 g/ha) was 0. For the same compound, the “Plant response rating, Wild buckwheat” value (wild buckwheat; Rate 200 g/ha, POSTEMERGENCE) was 10, the “Plant response rating, Wild buckwheat” value (wild buckwheat; Rate 200 g/ha, PREEMERGENCE) was 1 and the “Plant response rating, Nutsedge” value (purple nutsedge; POSTEMERGENCE, Rate 50 g/ha) was 1. For the same compound, the “Plant response rating, Nutsedge” value (purple nutsedge; PREEMERGENCE, Rate 50 g/ha) was 0, the “Plant response rating, Nutsedge” value (purple nutsedge; Rate 200 g/ha, POSTEMERGENCE) was 3 and the “Plant response rating, Nutsedge” value (purple nutsedge; Rate 200 g/ha, PREEMERGENCE) was 2. The “Plant response rating, Bedstraw” value (bedstraw; POSTEMERGENCE, Rate 50 g/ha) was 7, the “Plant response rating, Bedstraw” value (bedstraw; POSTEMERGENCE, Rate 200 g/ha) was 9 and the “Plant response rating, Bedstraw” value (bedstraw; PREEMERGENCE, Rate 50 g/ha) was 0. For the same compound, the “Plant response rating, Bedstraw” value (bedstraw; Rate 200 g/ha, PREEMERGENCE) was 8, the “Plant response rating, Lambsquarter” value (lambsquarters; POSTEMERGENCE, Rate 50 g/ha) was 9 and the “Plant response rating, Lambsquarter” value (lambsquarters; PREEMERGENCE, Rate 50 g/ha) was 10. For the same compound, the “Plant response rating, Lambsquarter” value (lambsquarters; Rate 200 g/ha, POSTEMERGENCE) was 10, the “Plant response rating, Lambsquarter” value (lambsquarters; Rate 200 g/ha, PREEMERGENCE) was 10 and the “Plant response rating, Barnyardgrass” value (barnyardgrass; POSTEMERGENCE, Rate 50 g/ha) was 5. For the same compound, the “Plant response rating, Barnyardgrass” value (barnyardgrass; POSTEMERGENCE, Rate 200 g/ha) was 9, the “Plant response rating, Barnyardgrass” value (barnyardgrass; PREEMERGENCE, Rate 50 g/ha) was 1 and the “Plant response rating, Barnyardgrass” value (barnyardgrass; Rate 200 g/ha, PREEMERGENCE) was 7. The “Plant response rating, Rice” value (rice; POSTEMERGENCE, Rate 50 g/ha) was 5, the “Plant response rating, Rice” value (rice; PREEMERGENCE, Rate 50 g/ha) was 0 and the “Plant response rating, Rice” value (rice; Rate 200 g/ha, POSTEMERGENCE) was 6. The “Plant response rating, Rice” value (rice; Rate 200 g/ha, PREEMERGENCE) was 2, the “Plant response rating, Cotton” value (cotton; POSTEMERGENCE, Rate 50 g/ha) was 9 and the “Plant response rating, Cotton” value (cotton; POSTEMERGENCE, Rate 200 g/ha) was 10. The “Plant response rating, Cotton” value (cotton; PREEMERGENCE, Rate 50 g/ha) was 0, the “Plant response rating, Cotton” value (cotton; Rate 200 g/ha, PREEMERGENCE) was 4 and the “Plant response rating, Barley” value (barley; POSTEMERGENCE, Rate 50 g/ha) was 2. The “Plant response rating, Barley” value (barley; POSTEMERGENCE, Rate 200 g/ha) was 4, the “Plant response rating, Barley” value (barley; PREEMERGENCE, Rate 50 g/ha) was 0 and the “Plant response rating, Barley” value (barley; Rate 200 g/ha, PREEMERGENCE) was 0. The “Plant response rating, Blackgrass” value (blackgrass; POSTEMERGENCE, Rate 50 g/ha) was 3, the “Plant response rating, Blackgrass” value (blackgrass; POSTEMERGENCE, Rate 200 g/ha) was 4 and the “Plant response rating, Blackgrass” value (blackgrass; PREEMERGENCE, Rate 50 g/ha) was 0. For the same compound, the “Plant response rating, Blackgrass” value (blackgrass; Rate 200 g/ha, PREEMERGENCE) was 4, the “Plant response rating, Soybean” value (soybean; POSTEMERGENCE, Rate 50 g/ha) was 4 and the “Plant response rating, Soybean” value (soybean; PREEMERGENCE, Rate 50 g/ha) was 0. The “Plant response rating, Soybean” value (soybean; Rate 200 g/ha, POSTEMERGENCE) was 5, the “Plant response rating, Soybean” value (soybean; Rate 200 g/ha, PREEMERGENCE) was 3 and the “Plant response rating, Rape” value (rape; POSTEMERGENCE, Rate 50 g/ha) was 6. The “Plant response rating, Rape” value (rape; PREEMERGENCE, Rate 50 g/ha) was 0, the “Plant response rating, Rape” value (rape; Rate 200 g/ha, POSTEMERGENCE) was 9 and the “Plant response rating, Crabgrass” value (crabgrass; POSTEMERGENCE, Rate 50 g/ha) was 3. For the same compound, the “Plant response rating, Crabgrass” value (crabgrass; POSTEMERGENCE, Rate 200 g/ha) was 6, the “Plant response rating, Crabgrass” value (crabgrass; PREEMERGENCE, Rate 50 g/ha) was 4 and the “Plant response rating, Crabgrass” value (crabgrass; Rate 200 g/ha, PREEMERGENCE) was 9. The “Plant response rating, Corn” value (corn; POSTEMERGENCE, Rate 50 g/ha) was 4, the “Plant response rating, Corn” value (corn; POSTEMERGENCE, Rate 200 g/ha) was 7 and the “Plant response rating, Corn” value (corn; PREEMERGENCE, Rate 50 g/ha) was 0. The “Plant response rating, Corn” value (corn; Rate 200 g/ha, PREEMERGENCE) was 3.
